Key:
Format in all cases: in vivo
[1] = tested on: barnyardgrass (Echinochloa crus-galli); test: Test A preemergence barnyardgrass; conditions: 0 to 100 scale; for Barnyardgrass plant response rating: 0 no effect, 100 complete control; for Plant response rating, Barnyardgrass: 0 is no effect, 100 is complete control
From the text: (§1) Seeds of plant species selected from barnyardgrass (Echinochloa crus-galli), kochia (Kochia scoparia), ragweed (common ragweed, Ambrosia elatior), ryegrass, Italian (Italian ryegrass, Lolium multiflorum), crabgrass, large (large crabgrass, Digitaria sanguinalis), foxtail, giant (giant foxtail, Setaria faberii), morningglory (Ipomoea spp.), pigweed (Amaranthus retroflexus), velvetleaf (Abutilon theophrasti), wheat (Triticum aestivum), and corn (Zea mays) were planted into a blend of loam soil and sand and treated preemergence with a directed soil spray using test chemicals formulated in a non-phytotoxic solvent mixture which included a surfactant.
(§2) At the same time, plants selected from these crop and weed species and also blackgrass (Alopecurus myosuroides), and galium (catchweed bedstraw, Galium aparine) were planted in pots containing the same blend of loam soil and sand and treated with postemergence applications of test chemicals formulated in the same manner. Plants ranged in height from 2 to 10 cm and were in the one- to two-leaf stage for the postemergence treatment. Treated plants and untreated controls were maintained in a greenhouse for approximately 10 d, after which time all treated plants were compared to untreated controls and visually evaluated for injury. Plant response ratings, summarized in Table A, are based on a 0 to 100 scale where 0 is no effect and 100 is complete control. A dash (-) response means no test result.

kochia (Kochia scoparia) [2] = test: Test A preemergence kochia; conditions: 0 to 100 scale, 0 no effect, 100 complete control
From the text: as §1, §2

[3] = tested on: ragweed (common ragweed, Ambrosia elatior); test: Test A preemergence ragweed; conditions: 0 to 100 scale, 0 no effect, 100 complete control
From the text: as §1, §2

[4] = tested on: ryegrass, Italian (Italian ryegrass, Lolium multiflorum); test: Test A preemergence ryegrass, Italian; conditions: 0 to 100 scale, 0 no effect, 100 complete control
From the text: as §1, §2

[5] = tested on: foxtail, giant (giant foxtail, Setaria faberii); test: Test A preemergence foxtail, giant; conditions: 0 to 100 scale, 0 no effect, 100 complete control
From the text: as §1, §2

[6] = tested on: pigweed (Amaranthus retroflexus); test: Test A preemergence pigweed; conditions: 0 to 100 scale, 0 no effect, 100 complete control
From the text: as §1, §2

[7] = tested on: barnyardgrass (Echinochloa crus-galli); test: Test A postemergence barnyardgrass; conditions: 0 to 100 scale, 0 is no effect, 100 is complete control
From the text: as §1, §2

kochia (Kochia scoparia) [8] = test: Test A postemergence kochia; conditions: 0 to 100 scale, 0 is no effect, 100 is complete control
From the text: as §1, §2

[9] = tested on: ragweed (common ragweed, Ambrosia elatior); test: Test A postemergence ragweed; conditions: 0 to 100 scale, 0 is no effect, 100 is complete control
From the text: as §1, §2

[10] = tested on: ryegrass, Italian (Italian ryegrass, Lolium multiflorum); test: Test A postemergence ryegrass, Italian; conditions: 0 to 100 scale, 0 is no effect, 100 is complete control
From the text: as §1, §2

[11] = tested on: foxtail, giant (giant foxtail, Setaria faberii); test: Test A postemergence foxtail, giant; conditions: 0 to 100 scale, 0 is no effect, 100 is complete control
From the text: as §1, §2

[12] = tested on: pigweed (Amaranthus retroflexus); test: Test A postemergence pigweed; conditions: 0 to 100 scale, 0 is no effect, 100 is complete control
From the text: as §1, §2

[13] = tested on: wheat (Triticum aestivum); test: Test A postemergence wheat; conditions: 0 to 100 scale, 0 is no effect, 100 is complete control
From the text: as §1, §2

corn (Zea mays) = test: Test A postemergence corn; conditions: 0 to 100 scale, 0 is no effect, 100 is complete control
From the text: as §1, §2

[14] = tested on: blackgrass (Alopecurus myosuroides); test: Test A postemergence blackgrass; conditions: 0 to 100 scale, 0 is no effect, 100 is complete control
From the text: as §1, §2

[15] = tested on: galium (catchweed bedstraw, Galium aparine); test: Test A postemergence galium; conditions: 0 to 100 scale, 0 is no effect, 100 is complete control
From the text: as §1, §2

rice (Oryza sativa) = test: Test B flooded paddy test rice; conditions: Table B, Flood, scale 0 to 100
Procedure: (§3) Plant species in the flooded paddy test selected from rice (Oryza sativa), sedge, umbrella (small-flower umbrella sedge, Cyperus difformis), ducksalad (Heteranthera limosa), and barnyardgrass (Echinochloa crus-galli) were grown to the 2-leaf stage for testing. At the time of treatment, test pots were flooded to 3 cm above the soil surface, treated by application of test compounds directly to the paddy water, and then maintained at that water depth for the duration of the test. Treated plants and controls were maintained in a greenhouse for 13 to 15 d, after which time all species were compared to controls and visually evaluated. […] A dash (-) response means no test result.

[16] = tested on: sedge, umbrella (small-flower umbrella sedge, Cyperus difformis); test: Test B flooded paddy test sedge, umbrella; conditions: Table B, Flood, scale 0 to 100
Procedure: as §3

[17] = tested on: ducksalad (Heteranthera limosa); test: Test B flooded paddy test ducksalad; conditions: Table B, Flood, scale 0 to 100
Procedure: as §3

[18] = tested on: barnyardgrass (Echinochloa crus-galli); test: Test B flooded paddy test barnyardgrass; conditions: Table B, Flood, scale 0 to 100
Procedure: as §3

Row | SMILES | Barnyardgrass plant response rating ([1]; 125 g ai/ha) | Kochia plant response rating (kochia (Kochia scoparia) [2]; 125 g ai/ha) | Kochia plant response rating (kochia (Kochia scoparia) [2]; 500 g ai/ha) | Ragweed plant response rating ([3]; 125 g ai/ha) | Ragweed plant response rating ([3]; 500 g ai/ha) | Ryegrass, Italian plant response rating ([4]; 125 g ai/ha) | Ryegrass, Italian plant response rating ([4]; 500 g ai/ha) | Foxtail, Giant plant response rating ([5]; 125 g ai/ha) | Foxtail, Giant plant response rating ([5]; 500 g ai/ha) | Pigweed plant response rating ([6]; 125 g ai/ha) | Pigweed plant response rating ([6]; 500 g ai/ha) | Plant response rating, Barnyardgrass ([7]; 125 g ai/ha) | Plant response rating, Barnyardgrass ([7]; 500 g ai/ha) | Plant response rating, Kochia (kochia (Kochia scoparia) [8]; 125 g ai/ha) | Plant response rating, Kochia (kochia (Kochia scoparia) [8]; 500 g ai/ha) | Plant response rating, Ragweed ([9]; 125 g ai/ha) | Plant response rating, Ragweed ([9]; 500 g ai/ha) | Plant response rating, Ryegrass, Italian ([10]; 125 g ai/ha) | Plant response rating, Ryegrass, Italian ([10]; 500 g ai/ha) | Plant response rating, Foxtail, Giant ([11]; 125 g ai/ha) | other results
1 | O=C1NCCC(c2ccccc2C(F)(F)F)C1C(=O)Nc1ccccc1C(F)(F)F (racemic) [Compound 7] | 0 | 0 | 0 | 0 | 0 | 0 | 0 | 0 | 0 | 0 | 0 | 0 | 0 | 0 | 0 | 0 | 0 | 0 | 0 | 0 | Plant response rating, Barnyardgrass ([1]; 500 g ai/ha): 0; Plant response rating, Foxtail, Giant ([11]; 500 g ai/ha): 0; Plant response rating, Pigweed ([12]; 125 g ai/ha): 0; Plant response rating, Pigweed ([12]; 500 g ai/ha): 0; Plant response rating, Wheat ([13]; 125 g ai/ha): 0; Plant response rating, Wheat ([13]; 500 g ai/ha): 0; Plant response rating, Corn (corn (Zea mays); 125 g ai/ha): 0; Plant response rating, Corn (corn (Zea mays); 500 g ai/ha): 0; Plant response rating, Blackgrass ([14]; 125 g ai/ha): 0; Plant response rating, Blackgrass ([14]; 500 g ai/ha): 0; Plant response rating, Galium ([15]; 125 g ai/ha): 0; Plant response rating, Galium ([15]; 500 g ai/ha): 0; Plant response rating (rice (Oryza sativa); 1000 g ai/ha): 0; Plant response rating ([16]; 1000 g ai/ha): 0; Plant response rating ([17]; 1000 g ai/ha): 0; Plant response rating ([18]; 1000 g ai/ha): 0
2 | O=C1NCCC(c2ccccc2C(F)(F)F)C1C(=O)Nc1cccc(F)c1F (racemic) [Compound 8] | 0 | 0 | 0 | 0 | 0 | 0 | 0 | 0 | 0 | 0 | 0 | 0 | 0 | 0 | 0 | 0 | 0 | 0 | 0 | 0 | Plant response rating, Barnyardgrass ([1]; 500 g ai/ha): 0; Plant response rating, Foxtail, Giant ([11]; 500 g ai/ha): 0; Plant response rating, Pigweed ([12]; 125 g ai/ha): 0; Plant response rating, Pigweed ([12]; 500 g ai/ha): 0; Plant response rating, Wheat ([13]; 125 g ai/ha): 0; Plant response rating, Wheat ([13]; 500 g ai/ha): 0; Plant response rating, Corn (corn (Zea mays); 125 g ai/ha): 0; Plant response rating, Corn (corn (Zea mays); 500 g ai/ha): 0; Plant response rating, Blackgrass ([14]; 125 g ai/ha): 0; Plant response rating, Blackgrass ([14]; 500 g ai/ha): 0; Plant response rating, Galium ([15]; 125 g ai/ha): 0; Plant response rating, Galium ([15]; 500 g ai/ha): 0
3 | O=C1NCCC(c2ccc(C(F)(F)F)cc2)C1C(=O)Nc1cccc(F)c1Cl (racemic) [Compound 15] | 60 | 0 | 0 | 0 | 80 | 0 | 0 | 80 | 90 | 0 | 0 | 60 | 70 | 10 | 60 | 0 | 40 | 0 | 0 | 70 | Barnyardgrass plant response rating ([1]; 500 g ai/ha): 80; Plant response rating, Foxtail, Giant ([11]; 500 g ai/ha): 80; Plant response rating, Pigweed ([12]; 125 g ai/ha): 0; Plant response rating, Pigweed ([12]; 500 g ai/ha): 0; Plant response rating, Wheat ([13]; 125 g ai/ha): 0; Plant response rating, Wheat ([13]; 500 g ai/ha): 0; Plant response rating, Corn (corn (Zea mays); 125 g ai/ha): 0; Plant response rating, Corn (corn (Zea mays); 500 g ai/ha): 0; Plant response rating, Blackgrass ([14]; 125 g ai/ha): 20; Plant response rating, Blackgrass ([14]; 500 g ai/ha): 50; Plant response rating, Galium ([15]; 125 g ai/ha): 30; Plant response rating, Galium ([15]; 500 g ai/ha): 70; Plant response rating (rice (Oryza sativa); 500 g ai/ha): 0; Plant response rating ([16]; 500 g ai/ha): 0; Plant response rating ([17]; 500 g ai/ha): 60; Plant response rating ([18]; 500 g ai/ha): 40
4 | Cc1c(F)cccc1NC(=O)C1C(=O)NCCC1c1cccc(C(F)(F)F)c1 (racemic) [Compound 26] | 30 | 0 | 0 | 0 | 0 | 0 | 50 | 60 | 90 | 0 | 0 | 30 | 80 | 0 | 0 | 0 | 0 | 20 | 20 | 30 | Barnyardgrass plant response rating ([1]; 500 g ai/ha): 90; Plant response rating, Foxtail, Giant ([11]; 500 g ai/ha): 90; Plant response rating, Pigweed ([12]; 125 g ai/ha): 0; Plant response rating, Pigweed ([12]; 500 g ai/ha): 0; Plant response rating, Wheat ([13]; 125 g ai/ha): 0; Plant response rating, Wheat ([13]; 500 g ai/ha): 20; Plant response rating, Corn (corn (Zea mays); 125 g ai/ha): 20; Plant response rating, Corn (corn (Zea mays); 500 g ai/ha): 40; Plant response rating, Blackgrass ([14]; 125 g ai/ha): 0; Plant response rating, Blackgrass ([14]; 500 g ai/ha): 40; Plant response rating, Galium ([15]; 125 g ai/ha): 0; Plant response rating, Galium ([15]; 500 g ai/ha): 0; Plant response rating (rice (Oryza sativa); 500 g ai/ha): 0; Plant response rating ([16]; 500 g ai/ha): 0; Plant response rating ([17]; 500 g ai/ha): 50; Plant response rating ([18]; 500 g ai/ha): 40
5 | O=C1NCCC(c2cccc(C(F)(F)F)c2)C1C(=O)Nc1ccc(F)cc1F (racemic) [Compound 27] | 60 | 0 | 0 | 0 | 0 | 0 | 0 | 80 | 90 | 0 | 0 | 50 | 60 | 0 | 0 | 0 | 0 | 0 | 0 | 40 | Barnyardgrass plant response rating ([1]; 500 g ai/ha): 90; Plant response rating, Foxtail, Giant ([11]; 500 g ai/ha): 70; Plant response rating, Pigweed ([12]; 125 g ai/ha): 0; Plant response rating, Pigweed ([12]; 500 g ai/ha): 0; Plant response rating, Wheat ([13]; 125 g ai/ha): 0; Plant response rating, Wheat ([13]; 500 g ai/ha): 0; Plant response rating, Corn (corn (Zea mays); 125 g ai/ha): 0; Plant response rating, Corn (corn (Zea mays); 500 g ai/ha): 0; Plant response rating, Blackgrass ([14]; 125 g ai/ha): 0; Plant response rating, Blackgrass ([14]; 500 g ai/ha): 0; Plant response rating, Galium ([15]; 125 g ai/ha): 0; Plant response rating, Galium ([15]; 500 g ai/ha): 0; Plant response rating (rice (Oryza sativa); 500 g ai/ha): 0; Plant response rating ([16]; 500 g ai/ha): 0; Plant response rating ([17]; 500 g ai/ha): 0; Plant response rating ([18]; 500 g ai/ha): 0
